Reference: ChEMBL document CHEMBL1128086, “Serine protease selectivity of the thrombin inhibitor D-Phe-Pro-Agmatine and its homologs” (Bioorg Med Chem Lett, 1995)

Key:
[1] = molecular target: Prothrombin (Homo sapiens) (UniProt P00734); experiment: In vitro inhibitory potency against human alpha-thrombin
[2] = molecular target: Serine protease 1 (Homo sapiens) (UniProt P07477); experiment: In vitro inhibitory potency against trypsin
[3] = molecular target: Urokinase-type plasminogen activator (Homo sapiens) (UniProt P00749); experiment: In vitro inhibitory potency against Urokinase-type plasminogen activator in human; no enzyme inhibition was observed at an inhibitor concentration of 200 uM
[4] = molecular target: Tissue-type plasminogen activator (Homo sapiens) (UniProt P00750); experiment: In vitro inhibitory potency against n-tissue plasminogen activator in human; no enzyme inhibition was observed at an inhibitor concentration of 200 uM
[5] = molecular target: Plasminogen (Homo sapiens) (UniProt P00747); experiment: In vitro inhibitory potency against plasmin; no enzyme inhibition was observed at an inhibitor concentration of 200 uM
[6] = molecular target: Thrombin and urokinase-type plasminogen activator (Homo sapiens) (UniProt P00734+P00749); experiment: Selectivity ratio of thrombin Kass to Urokinase Kass; format: protein assay
[7] = molecular target: Tissue-type plasminogen activator (Homo sapiens) (UniProt P00750); experiment: In vitro inhibitory potency against n-tissue plasminogen activator in human
[8] = Selectivity ratio of thrombin Kass to ntPA Kass
[9] = molecular target: Plasminogen (Homo sapiens) (UniProt P00747); experiment: In vitro inhibitory potency against plasmin
[10] = Selectivity ratio of thrombin Kass to plasmin Kass
[11] = molecular target: Urokinase-type plasminogen activator (Homo sapiens) (UniProt P00749); experiment: In vitro inhibitory potency against Urokinase-type plasminogen activator in human
[12] = molecular target: Thrombin & trypsin (Homo sapiens) (UniProt P00734+P07477+P07478+P35030); experiment: Selectivity ratio of thrombin Kass to trypsin Kass; format: protein assay
[13] = molecular target: Tissue-type plasminogen activator (Homo sapiens) (UniProt P00750); experiment: In vitro inhibitory potency against n-tissue plasminogen activator in humans; no enzyme inhibition was observed at an inhibitor concentration of 200 uM

Sequence of Tissue-type plasminogen activator (Homo sapiens) (P00750 36-562 limits assumed): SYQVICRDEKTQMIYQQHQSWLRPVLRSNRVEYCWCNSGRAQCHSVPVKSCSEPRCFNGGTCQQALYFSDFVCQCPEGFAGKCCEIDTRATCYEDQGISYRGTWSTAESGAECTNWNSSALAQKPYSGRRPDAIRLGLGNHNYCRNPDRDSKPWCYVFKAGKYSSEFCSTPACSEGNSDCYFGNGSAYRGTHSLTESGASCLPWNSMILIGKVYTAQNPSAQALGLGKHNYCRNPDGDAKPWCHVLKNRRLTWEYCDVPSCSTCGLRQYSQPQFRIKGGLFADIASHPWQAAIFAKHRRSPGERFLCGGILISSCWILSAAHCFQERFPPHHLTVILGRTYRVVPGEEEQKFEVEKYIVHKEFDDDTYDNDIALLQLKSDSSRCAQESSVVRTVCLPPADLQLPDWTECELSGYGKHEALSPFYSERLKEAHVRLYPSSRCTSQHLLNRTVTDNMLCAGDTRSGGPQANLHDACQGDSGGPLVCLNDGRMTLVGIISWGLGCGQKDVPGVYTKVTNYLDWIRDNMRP
Sequence of Plasminogen (Homo sapiens) (P00747 97-580 limits assumed): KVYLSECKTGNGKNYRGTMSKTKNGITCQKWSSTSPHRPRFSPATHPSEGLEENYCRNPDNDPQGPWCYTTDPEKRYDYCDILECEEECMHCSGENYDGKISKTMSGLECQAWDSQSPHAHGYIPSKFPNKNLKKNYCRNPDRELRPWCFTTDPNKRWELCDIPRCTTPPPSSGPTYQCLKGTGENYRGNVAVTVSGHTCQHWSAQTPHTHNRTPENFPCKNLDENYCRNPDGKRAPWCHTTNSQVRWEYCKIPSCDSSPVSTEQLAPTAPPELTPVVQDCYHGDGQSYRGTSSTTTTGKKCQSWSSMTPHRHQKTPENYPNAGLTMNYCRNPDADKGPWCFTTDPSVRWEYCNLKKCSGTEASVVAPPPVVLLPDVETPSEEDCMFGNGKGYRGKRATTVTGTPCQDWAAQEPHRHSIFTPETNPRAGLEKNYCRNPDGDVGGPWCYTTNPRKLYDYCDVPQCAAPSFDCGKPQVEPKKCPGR
Sequence of Plasminogen (Homo sapiens) (P00747 581-810 limits assumed): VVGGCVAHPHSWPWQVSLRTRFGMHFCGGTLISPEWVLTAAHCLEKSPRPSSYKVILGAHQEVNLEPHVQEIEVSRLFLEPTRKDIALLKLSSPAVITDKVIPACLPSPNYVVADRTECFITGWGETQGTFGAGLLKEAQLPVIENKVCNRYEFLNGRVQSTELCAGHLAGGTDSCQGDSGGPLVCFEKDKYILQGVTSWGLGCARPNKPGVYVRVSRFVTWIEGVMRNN
Sequence of Serine protease 1 (Homo sapiens) (P07477 whole entry): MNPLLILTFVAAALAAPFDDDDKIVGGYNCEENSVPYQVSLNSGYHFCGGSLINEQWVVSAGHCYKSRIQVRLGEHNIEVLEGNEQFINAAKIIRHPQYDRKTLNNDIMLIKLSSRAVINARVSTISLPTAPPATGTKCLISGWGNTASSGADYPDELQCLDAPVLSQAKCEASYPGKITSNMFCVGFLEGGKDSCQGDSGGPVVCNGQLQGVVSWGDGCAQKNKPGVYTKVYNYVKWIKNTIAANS

| SMILES | K ass [1] | K ass [2] | K ass [3] | K ass [4] | K ass [5] | Ratio [6] | K ass [7] | Ratio [8] | K ass [9] | Ratio [10] | K ass [11] | Ratio [12] | K ass [13] |
| --- | --- | --- | --- | --- | --- | --- | --- | --- | --- | --- | --- | --- | --- |
| NC(N)=NCCCCCCNC(=O)[C@@H]1CCCN1C(=O)[C@H](N)Cc1ccccc1 | 24000 l M-1 | 600 l M-1 | < 250 l M-1 | < 250 l M-1 | < 250 l M-1 | – | – | – | – | – | – | – | – |
| CN[C@H](Cc1ccccc1)C(=O)N1CCC[C@H]1C(=O)N[C@H](C=O)CCCNC(=N)N | 4.6e+08 l M-1 | 8.8e+07 l M-1 | – | – | – | 14000 | 50000 l M-1 | 8500 | 1.8e+06 l M-1 | 260 | 32000 l M-1 | 5.2 | – |
| NC(N)=NCCCCCNC(=O)[C@@H]1CCCN1C(=O)[C@H](N)Cc1ccccc1 | 1.3e+06 l M-1 | 2700 l M-1 | < 250 l M-1 | – | < 250 l M-1 | > 5200 | – | > 5200 | – | > 5200 | – | 480 | < 250 l M-1 |
| CN[C@H](Cc1ccccc1)C(=O)N1CCC[C@H]1C(=O)NCCCCN=C(N)N | 2.4e+06 l M-1 | 240000 l M-1 | – | – | – | 13000 | 1100 l M-1 | 2100 | 1100 l M-1 | 2100 | 180 l M-1 | 10 | – |
| NC(N)=NCCC[C@@H](C=O)NC(=O)[C@@H]1CCCN1C(=O)[C@H](N)Cc1ccccc1 | 5.4e+08 l M-1 | 1.1e+08 l M-1 | – | – | – | 13000 | 290000 l M-1 | 1800 | 1.4e+06 l M-1 | 390 | 42000 l M-1 | 5.1 | – |
| NC(N)=NCCCNC(=O)[C@@H]1CCCN1C(=O)[C@H](N)Cc1ccccc1 | 1.4e+06 l M-1 | 14000 l M-1 | < 250 l M-1 | – | < 250 l M-1 | 5600 | 4100 l M-1 | 341 | – | > 5600 | – | 100 | – |
| NC(N)=NCCCCNC(=O)C1CCCN1C(=O)[C@H](N)Cc1ccccc1 (some centres undefined) | 5.5e+06 l M-1 | 170000 l M-1 | – | – | – | 31000 | 6000 l M-1 | 920 | 1200 l M-1 | 4600 | 180 l M-1 | 33 | – |
